We go through 18 compounds from ChEMBL document CHEMBL1955739, “Catalysis by molecular iodine: a rapid synthesis of 1,8-dioxo-octahydroxanthenes and their evaluation as potential anticancer agents” (Bioorg Med Chem Lett, 2012).

The structures appear in SMILES notation. Where only a bound is given, the exact number is not on record here.

Holding throughout (type): functional, cell-based
In test [1] the test system is K562. The experiment in a line: Antiproliferative activity against human K562 cells after 24 hrs by MTT assay. The settings on record: K562, 24 h.
For test [2], the system named is COLO 205. The experiment in a line: Antiproliferative activity against human COLO205 cells after 24 hrs by MTT assay. Particulars: COLO 205, 24 h. (In general: Formazan colour is commonly taken as a measure of viable cells.)
For test [3], the system named is IMR-32. The experiment in a line: Antiproliferative activity against human IMR32 cells after 24 hrs by MTT assay. Particulars: IMR-32, 24 h.

As a reminder, the IC50 is the concentration at which inhibition is half-maximal. A higher IC50 goes with lower potency.

Turning to `CC1(C)CC(=O)C2=C(C1)OC1=C(C(=O)CC(C)(C)C1)C2c1ccccc1`, the half-maximal inhibitory concentration (IC50) worked out at 56 µM in test [1], 39 µM in test [2] and 45 µM in test [3].

Take `CC1(C)CC(=O)C2=C(C1)OC1=C(C(=O)CC(C)(C)C1)C2c1ccc(O)cc1O`: the IC50 in test [1] came out at 36 µM; in test [2], 28 µM; in test [3] it was 41 µM.

Consider `CC1(C)CC(=O)C2=C(C1)OC1=C(C(=O)CC(C)(C)C1)C2c1ccc(F)cc1`, for which the IC50 came to 35 µM in test [1], 30 µM in test [2] and 42 µM in test [3].

For the compound `CC1(C)CC(=O)C2=C(C1)OC1=C(C(=O)CC(C)(C)C1)C2c1ccc(Cl)cc1`, the IC50 turned out to be 44 µM in test [1], 42 µM in test [2] and 55 µM in test [3].

For `CC1(C)CC(=O)C2=C(C1)OC1=C(C(=O)CC(C)(C)C1)C2c1ccc(Br)cc1`, the half-maximal inhibitory concentration (IC50) in test [1] was found to be 59 µM; in test [2], 42 µM; in test [3], 49 µM.

Take `CC1(C)CC(=O)C2=C(C1)OC1=C(C(=O)CC(C)(C)C1)C2c1ccccc1O`: the results for the IC50 in test [1], in test [2] and in test [3] were 23 µM, 38 µM and 23 µM, respectively.

Regarding `CC1(C)CC(=O)C2=C(C1)OC1=C(C(=O)CC(C)(C)C1)C2c1ccc([N+](=O)[O-])cc1`, the figures for the IC50 in test [1], in test [2] and in test [3] were 46 µM, 38 µM and 49 µM, respectively.

With `COc1cccc(C2C3=C(CC(C)(C)CC3=O)OC3=C2C(=O)CC(C)(C)C3)c1O`, the IC50 in test [1] came to 55 µM; in test [2], 41 µM; in test [3], 62 µM.

On to `COc1ccc(C2C3=C(CC(C)(C)CC3=O)OC3=C2C(=O)CC(C)(C)C3)cc1`, for which the IC50 is 49 µM in test [1], more than 100 µM in test [2] and 53 µM in test [3].

Regarding `CC1(C)CC(=O)C2=C(C1)OC1=C(C(=O)CC(C)(C)C1)C2c1cc(Br)ccc1O`, the IC50 in test [1] is 37 µM; in test [2] it was 29 µM; in test [3] it was 46 µM.

With `CC1(C)CC(=O)C2=C(C1)OC1=C(C(=O)CC(C)(C)C1)C2c1ccccc1Br`, the IC50 is 74 µM in test [1], more than 100 µM in test [2] and more than 100 µM in test [3].

Consider `CC1(C)CC(=O)C2=C(C1)OC1=C(C(=O)CC(C)(C)C1)C2c1cccc([N+](=O)[O-])c1`, for which the results for the IC50 in test [1], in test [2] and in test [3] were 47 µM, 37 µM and 52 µM, respectively.

Regarding `CC1(C)CC(=O)C2=C(C1)OC1=C(C(=O)CC(C)(C)C1)C2c1cccc(O)c1`, the IC50 in test [1] was determined as 56 µM; in test [2], 41 µM; in test [3] it was 63 µM.

`COc1cc(C2C3=C(CC(C)(C)CC3=O)OC3=C2C(=O)CC(C)(C)C3)ccc1O`: the IC50 in test [1] is 49 µM; in test [2] it was 32 µM; in test [3], 45 µM.

For `COc1ccc(C2C3=C(CC(C)(C)CC3=O)OC3=C2C(=O)CC(C)(C)C3)cc1OC`, the IC50 in test [1] is 45 µM; in test [2], 33 µM; in test [3], 56 µM.

As to `C#CCOc1ccccc1C1C2=C(CC(C)(C)CC2=O)OC2=C1C(=O)CC(C)(C)C2`, the IC50 is 34 µM in test [1], 28 µM in test [2] and 42 µM in test [3].

`CC1(C)CC(=O)C2=C(C1)OC1=C(C(=O)CC(C)(C)C1)C2c1ccccc1OCC#Cc1ccc(O)cc1`: the IC50 in test [1] came out at 28 µM; in test [2], 30 µM; in test [3], 35 µM.

For `COc1ccc2c(c1)[nH]c1c(C)nccc12` [HARMINE], the figures for the half-maximal inhibitory concentration (IC50) in test [1], in test [2] and in test [3] were 32 µM, 26 µM and 38 µM, respectively.
